Legend:
[1] = test system: Aβtotal; experiment: Screening for γ-secretase-modulating activity in SKNBE2 cells carrying APP 695 wild type: Aβtotal in cell supernatant (Alphalisa); format: cell-based; conditions: Homo sapiens, overnight incubation
Outline: (§1)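 SKNBE2 cells expressing wild-type APP695 were incubated overnight at 37° C with test compound at several concentrations. Aβ42 and Aβtotal in supernatant were measured by AlphaLISA sandwich immunoassays. IC50 came from 4-parameter non-linear fits of percent of compound-free control versus log concentration.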

[2] = test system: Aβ42; experiment: In vivo efficacy: Aβ42 lowering in brain of non-transgenic mice after single oral dose (ELISA); design: species or system mouse; conditions: Mus musculus; dose 30 mg/kg oral dosing; soluble brain fraction, animals sacrificed after 4 h; untreated animals (Ctrl) set at 100; read-out: Aβ42 (% vs Ctrl) _Mean
From the text: (§2) To determine whether acute administration of an Aβ42 lowering agent would reduce Aβ42 levels in vivo, non-transgenic rodents, e.g. mice or rats were used. Animals treated with the Aβ42 lowering agent were examined and compared to those untreated or treated with vehicle and brain levels of soluble Aβ42 and total Aβ were quantitated by standard techniques, for example, using ELISA. Treatment periods varied from hours (h) to days and were adjusted based on the results of the Aβ42 lowering once a time course of onset of effect could be established.
(§3) A typical protocol for measuring Aβ42 lowering in vivo is shown but it is only one of many variations that could be used to optimize the levels of detectable Aβ. For example, Aβ42 lowering compounds were formulated in 20% of Captisol® (a sulfobutyl ether of β-cyclodextrin) in water or 20% hydroxypropyl β cyclodextrin. The Aβ42 lowering agents were administered as a single oral dose or by any acceptable route of administration to overnight fasted animals. After 4 h, the animals were sacrificed and Aβ42 levels were analysed.
(§4) Blood was collected by decapitation and exsanguinations in EDTA-treated collection tubes. Blood was centrifuged at 1900 g for 10 minutes (min) at 4° C. and the plasma recovered and flash frozen for later analysis. The brain was removed from the cranium and hindbrain. The cerebellum was removed and the left and right hemisphere were separated. The left hemisphere was stored at −18° C. for quantitative analysis of test compound levels. The right hemisphere was rinsed with phosphate-buffered saline (PBS) buffer and immediately frozen on dry ice and stored at −80° C. until homogenization for biochemical assays.
(§5) Mouse brains from non-transgenic animals were resuspended in 8 volumes of 0.4% DEA (diethylamine)/50 mM NaCl containing protease inhibitors (Roche-11873580001 or 04693159001) per gram of tissue, e.g. for 0.158 g brain, add 1.264 ml of 0.4% DEA. All samples were homogenized in the FastPrep-24 system (MP Biomedicals) using lysing matrix D (MPBio #6913-100) at 6 m/s for 20 seconds. Homogenates were centrifuged at 221.300×g for 50 min. The resulting high speed supernatants were then transferred to fresh eppendorf tubes. Nine parts of supernatant were neutralized with 1 part 0.5 M Tris-HCl pH 6.8 and used to quantify Aβtotal and Aβ42.
(§6) To quantify the amount of Aβtotal and Aβ42 in the soluble fraction of the brain homogenates, Enzyme-Linked-Immunosorbent-Assays were used. Briefly, the standards (a dilution of synthetic Aβ1-40 and Aβ1-42, Bachem) were prepared in 1.5 ml Eppendorf tube in Ultraculture, with final concentrations ranging from 10000 to 0.3 pg/ml. The samples and standards were co-incubated with HRPO-labelled N-terminal antibody for Aβ42 detection and with the biotinylated mid-domain antibody 4G8 for Aβtotal detection. 50 μl of conjugate/sample or conjugate/standards mixtures were then added to the antibody-coated plate (the capture antibodies selectively recognize the C-terminal end of Aβ42, antibody JRF/cAβ42/26, for Aβ42 detection and the N-terminus of Aβ, antibody JRF/rAβ/2, for Aβtotal detection). The plate was allowed to incubate overnight at 4° C. in order to allow formation of the antibody-amyloid complex. Following this incubation and subsequent wash steps the ELISA for Aβ42 quantification was finished by addition of Quanta Blu fluorogenic peroxidase substrate according to the manufacturer's instructions (Pierce Corp., Rockford, Il). A reading was performed after 10 to 15 min (excitation 320 nm/emission 420 nm).
In this model at least 20% Aβ42 lowering compared to untreated animals would be advantageous.
The results are shown in Table 4 (dose 30 mg/kg oral dosing) (value for untreated animals as control (Ctrl) was set at 100): […]

[3] = test system: Aβtotal; experiment: In vivo efficacy: Aβtotal in brain of non-transgenic mice after single oral dose (ELISA); design: species or system mouse; conditions: Mus musculus; dose 30 mg/kg oral dosing; soluble brain fraction, animals sacrificed after 4 h; untreated animals (Ctrl) set at 100; read-out: Aβtotal (% vs Ctrl)_Mean
From the text: as §2, §3, §4, §5, §6
For Aβtotal detection, a Streptavidine-Peroxidase-Conjugate was added, followed 60 min later by an additional wash step and addition of Quanta Blu fluorogenic peroxidase substrate according to the manufacturer's instructions (Pierce Corp., Rockford, Ill). A reading was performed after 10 to 15 min (excitation 320 nm/emission 420 nm). […]

[4] = test system: Aβ42; experiment: Screening for γ-secretase-modulating activity in SKNBE2 cells carrying APP 695 wild type: Aβ42 in cell supernatant (Alphalisa); format: cell-based; conditions: Homo sapiens, SKNBE2, SKNBE2 cells carrying APP 695 wild type, overnight incubation
Outline: as §1

COc1cc(Nc2nc3n(n2)CCCC3c2ccccc2Cl)ccc1-c1ccnc(C)c1 (racemic) [Compound 66, 8-(2-chlorophenyl)-5,6,7,8-tetrahydro-N-[3-methoxy-4-(2-methyl-4-pyridinyl)phenyl]-[1,2,4]triazolo[1,5-a]pyridin-2-amine]
IC50 [1]: 9120 nM | response vs control in vivo at 30 mg/kg [2]: 54% | response vs control in vivo at 30 mg/kg [3]: 92% | IC50 [4]: 35 nM

COc1cc(Nc2nc3n(n2)CCN(C)C3c2ccccc2C(F)(F)F)ccc1-n1cnc(C)c1 (centres unmarked) [Compound 13, 5,6,7,8-tetrahydro-N-[3-methoxy-4-(4-methyl-1H-imidazol-1-yl)phenyl]-7-methyl-8-[2-(trifluoromethyl)phenyl]-[1,2,4]triazolo[1,5-a]pyrazin-2-amine]
IC50 [1]: 7760 nM | response vs control in vivo at 30 mg/kg [2]: 93% | response vs control in vivo at 30 mg/kg [3]: 100% | IC50 [4]: 9 nM

COc1cc(Nc2nc3n(n2)CCN(C(C)=O)C3c2ccccc2C(F)(F)F)ccc1-n1cnc(C)c1 (centres unmarked) [Compound 14, 7-acetyl-5,6,7,8-tetrahydro-N-[3-methoxy-4-(4-methyl-1H-imidazol-1-yl)phenyl]-8-[2-(trifluoromethyl)phenyl]-[1,2,4]triazolo[1,5-a]pyrazin-2-amine]
IC50 [1]: > 10000 nM | response vs control in vivo at 30 mg/kg [2]: 101% | response vs control in vivo at 30 mg/kg [3]: 119% | IC50 [4]: 66 nM

Cc1cc(-c2ccc(Nc3nc4n(n3)CCCC4c3ccccc3C(F)(F)F)cc2)ccn1 (centres unmarked) [Compound 42, 5,6,7,8-tetrahydro-N-[4-(2-methyl-4-pyridinyl)phenyl]-8-[2-(trifluoromethyl)phenyl]-[1,2,4]triazolo[1,5-a]pyridin-2-amine]
IC50 [1]: > 10000 nM | response vs control in vivo at 30 mg/kg [2]: 58% | response vs control in vivo at 30 mg/kg [3]: 83% | IC50 [4]: 23 nM

COc1cc(Nc2nc3n(n2)CCCC3c2ccccc2C(F)(F)F)ccc1-c1ccnc(C)c1 (centres unmarked) [Compound 43, 5,6,7,8-tetrahydro-N-[3-methoxy-4-(2-methyl-4-pyridinyl)phenyl]-8-[2-(trifluoromethyl)phenyl]-[1,2,4]triazolo[1,5-a]pyridin-2-amine]
IC50 [1]: 7080 nM | response vs control in vivo at 30 mg/kg [2]: 71% | response vs control in vivo at 30 mg/kg [3]: 87% | IC50 [4]: 16 nM

FC(F)(F)c1ccccc1C1CCCn2nc(Nc3ccc(-c4cccnc4)cc3)nc21 (centres unmarked) [Compound 46, 5,6,7,8-tetrahydro-N-[4-(3-pyridinyl)phenyl]-8-[2-(trifluoromethyl)phenyl]-[1,2,4]triazolo[1,5-a]pyridin-2-amine]
IC50 [1]: > 10000 nM | response vs control in vivo at 30 mg/kg [2]: 61% | response vs control in vivo at 30 mg/kg [3]: 98% | IC50 [4]: 5250 nM

COc1cc(Nc2nc3n(n2)C(c2ccccc2C(F)(F)F)CCC3)ccc1-c1ccnc(C)c1 (centres unmarked) [Compound 52, 5,6,7,8-tetrahydro-N-[3-methoxy-4-(2-methyl-4-pyridinyl)phenyl]-5-[2-(trifluoromethyl)phenyl]-[1,2,4]triazolo[1,5-a]pyridin-2-amine 1.8 HCl3H2O]
IC50 [1]: ≥ 10000 nM | response vs control in vivo at 30 mg/kg [2]: 45% | response vs control in vivo at 30 mg/kg [3]: 112% | IC50 [4]: 182 nM

COc1cc(Nc2nc3n(n2)CCOC3c2ccccc2C(F)(F)F)ccc1-c1ccnc(C)c1 (centres unmarked) [Compound 65, 5,6-dihydro-N-[3-methoxy-4-(2-methyl-4-pyridinyl)phenyl]-8-[2-(trifluoromethyl)phenyl]-8H-[1,2,4]triazolo[5,1-c][1,4]oxazin-2-amine]
IC50 [1]: > 10000 nM | response vs control in vivo at 30 mg/kg [2]: 64% | response vs control in vivo at 30 mg/kg [3]: 101% | IC50 [4]: 52 nM

COc1cc(C2CCCn3nc(Nc4ccc(-c5ccnc(C)c5)c(OC)c4)nc32)ccc1F (centres unmarked) [Compound 107, 8-(4-fluoro-3-methoxyphenyl)-5,6,7,8-tetrahydro-N-[3-methoxy-4-(2-methyl-4-pyridinyl)phenyl]-[1,2,4]triazolo[1,5-a]pyridin-2-amine]
IC50 [1]: > 15000 nM | IC50 [4]: 32 nM | melting point: 147.4 °C

COc1cc(Nc2nc3n(n2)CCCC3c2c(F)cccc2Cl)ccc1-c1ccnc(C)c1 (centres unmarked) [Compound 110, 8-(2-chloro-6-fluorophenyl)-5,6,7,8-tetrahydro-N-[3-methoxy-4-(2-methyl-4-pyridinyl)phenyl]-[1,2,4]triazolo[1,5-a]pyridin-2-amine]
IC50 [1]: > 10000 nM | IC50 [4]: 50 nM | melting point: 174 °C

Cc1cc(-c2ccc(Nc3nc4n(n3)CCCC4c3cc(C(F)(F)F)ccc3F)cc2)ccn1 (centres unmarked) [Compound 114, 8-[2-fluoro-5-(trifluoromethyl)phenyl]-5,6,7,8-tetrahydro-N-[4-(2-methyl-4-pyridinyl)phenyl]-[1,2,4]triazolo[1,5-a]pyridin-2-amine]
IC50 [1]: > 10000 nM | IC50 [4]: 41 nM | melting point: 194.4 °C

Cc1cc(-c2ccc(Nc3nc4n(n3)CCCC4c3c(F)cccc3Cl)cc2)ccn1 (centres unmarked) [Compound 116, 8-(2-chloro-6-fluorophenyl)-5,6,7,8-tetrahydro-N-[4-(2-methyl-4-pyridinyl)phenyl]-[1,2,4]triazolo[1,5-a]pyridin-2-amine]
IC50 [1]: > 10000 nM | IC50 [4]: 71 nM | melting point: 234.4 °C

COc1cc(Nc2nc3n(n2)CCCC3c2cc(C(F)(F)F)ccc2C)ccc1-c1ccnc(C)c1 (centres unmarked) [Compound 151, 5,6,7,8-tetrahydro-N-[3-methoxy-4-(2-methyl-4-pyridinyl)phenyl]-8-[2-methyl-5-(trifluoromethyl)phenyl]-[1,2,4]triazolo[1,5-a]pyridin-2-amine]
IC50 [1]: 7080 nM | IC50 [4]: 31 nM | melting point: 146.8 °C

COc1cc(Nc2nc3n(n2)CCCC3c2cc(C(F)(F)F)ccc2F)ccc1-c1ccnc(C)c1 (centres unmarked) [Compound 182, 8-[2-fluoro-5-(trifluoromethyl)phenyl]-5,6,7,8-tetrahydro-N-[3-methoxy-4-(2-methyl-4-pyridinyl)phenyl]-[1,2,4]triazolo[1,5-a]pyridin-2-amine]
IC50 [1]: > 10000 nM | IC50 [4]: 44 nM | melting point: 173.1 °C

COc1ccc(F)c(C2CCCn3nc(Nc4ccc(-c5ccnc(C)c5)cc4)nc32)c1 (centres unmarked) [Compound 183, 8-(2-fluoro-5-methoxyphenyl)-5,6,7,8-tetrahydro-N-[4-(2-methyl-4-pyridinyl)phenyl]-[1,2,4]triazolo[1,5-a]pyridin-2-amine]
IC50 [1]: > 10000 nM | IC50 [4]: 41 nM | melting point: 204.6 °C

COc1ccc(F)c(C2CCCn3nc(Nc4ccc(-c5ccnc(C)c5)c(F)c4)nc32)c1 (centres unmarked) [Compound 184, 8-(2-fluoro-5-methoxyphenyl)-N-[3-fluoro-4-(2-methyl-4-pyridinyl)phenyl]-5,6,7,8-tetrahydro-[1,2,4]triazolo[1,5-a]pyridin-2-amine]
IC50 [1]: > 10000 nM | IC50 [4]: 23 nM | melting point: 221.5 °C

From patent US9145399B2, “Substituted bicyclic triazole derivatives as gamma secretase modulators” (Janssen Pharmaceuticals, Inc., priority 2010, dated 2015)
